Experimental findings from paper PMC11743598, “Identification of a binding site for small molecule inhibitors targeting human TRPM4” (Nature Communications, 2025) are described below.

This assay addresses T1, HsTRPM4 (Homo sapiens, UniProt Q8TD43).
T1 construct: gene TRPM4; full-length, wild-type codon-optimized gene, C-terminal HA and FLAG tags, pcDNA3.1; patch clamp in transiently transfected cells (TsA-201); cryo-EM from HEK293F, SMA native nanodiscs, C4 symmetry (homotetramer)
As to the kind of experiment: cryo-EM structure, […] A. The format is binding. The conditions noted are these: endogenous lipid assigned from density, three sites per protomer, SMA native nanodiscs.

The structures appear in SMILES notation.

T1 sequence (Q8TD43 whole entry): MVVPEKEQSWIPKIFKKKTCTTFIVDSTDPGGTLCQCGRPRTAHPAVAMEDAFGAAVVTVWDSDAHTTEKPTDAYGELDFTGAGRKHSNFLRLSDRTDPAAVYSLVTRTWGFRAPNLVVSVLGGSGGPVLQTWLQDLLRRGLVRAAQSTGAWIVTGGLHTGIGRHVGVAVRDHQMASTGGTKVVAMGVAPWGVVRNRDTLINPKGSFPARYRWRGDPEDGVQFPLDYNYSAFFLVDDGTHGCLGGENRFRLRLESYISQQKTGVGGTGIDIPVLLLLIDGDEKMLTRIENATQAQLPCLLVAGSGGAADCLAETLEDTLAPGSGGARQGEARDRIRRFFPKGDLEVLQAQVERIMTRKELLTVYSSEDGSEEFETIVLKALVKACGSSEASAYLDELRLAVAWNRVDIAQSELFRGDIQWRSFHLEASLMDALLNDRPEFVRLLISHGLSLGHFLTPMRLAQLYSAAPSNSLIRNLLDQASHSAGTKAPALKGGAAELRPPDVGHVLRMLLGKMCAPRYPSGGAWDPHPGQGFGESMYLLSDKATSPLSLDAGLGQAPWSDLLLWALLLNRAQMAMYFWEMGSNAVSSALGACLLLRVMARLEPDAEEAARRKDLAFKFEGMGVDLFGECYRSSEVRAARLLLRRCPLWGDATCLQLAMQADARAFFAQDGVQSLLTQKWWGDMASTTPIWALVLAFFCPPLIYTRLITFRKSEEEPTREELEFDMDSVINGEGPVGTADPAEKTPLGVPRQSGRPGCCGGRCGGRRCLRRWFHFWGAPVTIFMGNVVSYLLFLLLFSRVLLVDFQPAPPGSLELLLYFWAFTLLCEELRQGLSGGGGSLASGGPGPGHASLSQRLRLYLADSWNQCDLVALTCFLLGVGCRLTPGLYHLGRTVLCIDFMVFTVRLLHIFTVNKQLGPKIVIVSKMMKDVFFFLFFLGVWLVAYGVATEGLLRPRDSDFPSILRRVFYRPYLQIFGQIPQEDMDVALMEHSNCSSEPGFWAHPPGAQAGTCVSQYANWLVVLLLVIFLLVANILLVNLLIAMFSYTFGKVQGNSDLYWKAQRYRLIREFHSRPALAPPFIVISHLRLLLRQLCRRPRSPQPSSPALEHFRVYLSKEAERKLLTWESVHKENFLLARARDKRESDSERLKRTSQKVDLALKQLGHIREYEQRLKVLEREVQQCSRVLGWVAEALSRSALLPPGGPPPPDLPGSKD

With `CC(C)CCC[C@@H](C)[C@H]1CC[C@H]2[C@@H]3CC=C4C[C@@H](O)CC[C@]4(C)[C@H]3CC[C@]12C` [cholesterol], the “cryo-EM structure, 3.67 A” value is given as “primarily three densities for cholesterol molecules bound to TRPM4 observed”.
